Experimental data taken from the supplement of paper PMC4858399.

What was measured:
Conditions in all cases: exposure time 48 h
[1] = test system: Caenorhabditis elegans N2; test: mean nematode size ln(EXT) after 48 h, plate-adjusted (DMSO control set to 6) (ln(EXT), control-adjusted); higher = larger nematodes / less growth inhibition
Procedure, shortened: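 A growth model removed debris from Biosort extinction readings taken on each worm. These worms were synchronised C. elegans N2 L1 larvae, 50 per well in 4–6 wells per treatment, grown for 48 h at 20°C in K-medium with killed OP50, 1% DMSO and 0.5–200 µM chemical. Readings were natural-logged and averaged by well to give mean size. On each plate, the vehicle control mean was subtracted and 6 was added.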

[2] = test system: Caenorhabditis elegans N2; test: lowest effective concentration for larval growth inhibition (size below effect threshold); higher = less potent
Procedure, shortened: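 Worm size was taken as per-worm extinction on the Biosort, log-transformed and turned into well means. The larvae (C. elegans N2, L1 stage, 50 per 96-well) had spent 48 h at 20°C in K-medium with killed bacteria, 1% DMSO and 0.5, 1, 5, 10, 50, 100 or 200 µM chemical. The lowest effective concentration marks the first dose where the plate-adjusted mean size drops under a cutoff and remains under it at every higher dose; the cutoff is 5.665.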

[3] = test system: Caenorhabditis elegans N2; test: AC50 for larval growth inhibition (Hill fit); higher = less potent
Procedure, shortened: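 AC50 values come from a constrained Hill fit by weighted genetic-algorithm regression and are censored when out of range. The fit used only wells with at least 10 worms. Each well of a 96-well plate held 50 synchronised C. elegans N2 L1 larvae in K-medium with killed OP50, 1% DMSO and 0.5–200 µM chemical for 48 h at 20°C. A COPAS Biosort recorded each worm's size as extinction, which was log-transformed and averaged per well.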

SMILES | mean nematode size ln(EXT) (ln) ([1]; 0.5 µM) | mean nematode size ln(EXT) (ln) ([1]; 1 µM) | mean nematode size ln(EXT) (ln) ([1]; 5 µM) | mean nematode size ln(EXT) (ln) ([1]; 10 µM) | mean nematode size ln(EXT) (ln) ([1]; 50 µM) | mean nematode size ln(EXT) (ln) ([1]; 100 µM) | mean nematode size ln(EXT) (ln) ([1]; 200 µM) | lowest effective concentration [2] [µM] | AC50 for larval growth inhibition [3] [µM]
c1ccc(Nc2ccccc2)cc1 [Diphenylamine] | 5.86 | 5.75 | 5.83 | 4.11 | 3.96 | 3.87 | 4.5 | 10 | 7.4
CCCCOC(=O)[C@H](C)Oc1ccc(Oc2ccc(C#N)cc2F)cc1 [Cyhalofop-butyl] | 6 | 6 | 6.12 | 6.17 | 6.08 | 5.91 | 5.22 | 200 | 107
CC1(C)C(C=C(Cl)Cl)C1C(=O)OC(C#N)c1cccc(Oc2ccccc2)c1 (stereo not drawn) [Cypermethrin] | 6.09 | 6.11 | 6.12 | 6.03 | 5.88 | 5.71 | 5.17 | 200 | > 200
CCCCCCOC(=O)c1ccccc1C(=O)OCCCCCC [Dihexyl phthalate] | 5.8 | 5.83 | 5.89 | 5.83 | 5.81 | 5.73 | 5.5 | 200 | > 200
CC(C)(C)c1cc(O)c(C(C)(C)C)cc1O [1,4-Benzenediol, 2,5-bis(1,1-dimethylethyl)-] | 5.85 | 5.93 | 5.73 | 5.79 | 5.7 | 4.85 | 3.48 | 100 | 113
CCc1ccc(C(=O)NN(C(=O)c2cc(C)cc(C)c2)C(C)(C)C)cc1 [Tebufenozide] | 6.1 | 6.49 | 6.28 | 6.07 | 5.96 | 6.06 | 5.38 | 200 | > 200
CC(C)OC(=O)Nc1cccc(Cl)c1 [Chlorpropham] | 5.75 | 5.77 | 5.9 | 5.95 | 5.82 | 4.79 | 4.32 | 100 | 60.7
CCc1c(C(=O)NN2CCCCC2)nn(-c2ccc(Cl)cc2Cl)c1-c1ccc(Br)cc1 [Surinabant] | 5.77 | 5.74 | 5.6 | 5.44 | 5.2 | 5.06 | 4.77 | 5 | > 200
O=C(O)c1cccc(C[C@@H]2COc3ccc(OCc4nc5cc(F)ccc5s4)cc3[C@@H]2O)c1 | 5.95 | 5.88 | 5.79 | 5.88 | 5.87 | 5.92 | 5.09 | 200 | > 200
COP(=S)(OC)SCn1nnc2ccccc2c1=O [Azinphos-methyl] | 6.09 | 6.12 | 6.04 | 5.95 | 5.61 | 5.49 | 3.9 | 50 | 170
O=[N+]([O-])c1ccccc1 [Nitrobenzene] | 6.01 | 5.97 | 6.01 | 6.12 | 6.23 | 6.14 | 5.65 | 200 | 193
O=C(O)COc1nc(Cl)c(Cl)cc1Cl [Triclopyr] | 6.07 | 6.1 | 6.13 | 6.08 | 5.61 | 5.48 | 4.06 | 50 | 156
CCC(C)c1cc([N+](=O)[O-])cc([N+](=O)[O-])c1O (stereo not drawn) [Dinoseb] | 6.02 | 5.96 | 5.94 | 5.91 | 5.82 | 5.56 | 5.04 | 100 | > 200
CCCCOC(=O)CCCCC(=O)OCCCC [Dibutyl hexanedioate] | 5.86 | 5.83 | 5.8 | 5.76 | 5.27 | 3.38 | 3.38 | 50 | 58.5
C[Si]1(C)O[Si](C)(C)O[Si](C)(C)O[Si](C)(C)O1 [Octamethylcyclotetrasiloxane] | 5.99 | 5.98 | 5.96 | 5.97 | 5.98 | 6.05 | 4.48 | 200 | 183
CCCCCCCCCC(=O)O [Decanoic acid] | 5.89 | 5.86 | 5.85 | 5.87 | 5.85 | 5.68 | 5.66 | 200 | > 200
CCCCCCCCCCCCc1cccc(S(=O)(=O)O)c1 [Triethanolamine dodecylbenzene sulfonate] | 5.43 | 5.59 | 5.54 | 5.69 | 5.03 | 4.02 | 4.04 | 50 | 50.5
Clc1ccc(C(c2ccc(Cl)cc2)C(Cl)Cl)cc1 [p,p'-DDD] | 5.59 | 5.57 | 3.62 | 3.7 | 3.68 | 3.57 | 3.14 | ≤ 0.5 | 1.88
Cn1cc(-c2ccccc2)c(=O)c(-c2cccc(C(F)(F)F)c2)c1 [Fluridone] | 6 | 5.95 | 5.96 | 5.88 | 5.69 | 4.25 | 5.6 | 100 | 52
CCc1nn(C2CCCCC2)c2cc(C3(C#N)CCC(C(=O)O)CC3)ccc12 (stereo not drawn) | 5.91 | 5.88 | 5.86 | 5.93 | 5.81 | 5.67 | 5.45 | 200 | > 200
C#CC(C)(C)NC(=O)c1cc(Cl)cc(Cl)c1 [Propyzamide] | 5.98 | 5.91 | 5.98 | 6.01 | 5.92 | 5.91 | 5.63 | 200 | > 200
CC1COC(Cn2cncn2)(c2ccc(Oc3ccc(Cl)cc3)cc2Cl)O1 (stereo not drawn) [Difenoconazole] | 4.06 | 5.79 | 3.52 | 5.15 | 3.59 | 3.58 | 3.51 | 5 | 1.84
